# Assays:
# Autotaxin [1] = molecular target: Autotaxin (Rattus norvegicus, UniProt Q64610); assay: Inhibition of ATX in rat plasma assessed as inhibition of LPA production after 2 hrs by LC-MS/MS analysis; assay type: cell-free
# Autotaxin [2] = molecular target: T1, Autotaxin (Mus musculus, UniProt Q9R1E6); assay: Inhibition of ATX in mouse plasma assessed as inhibition of LPA production after 2 hrs by LC-MS/MS analysis; assay type: cell-free
# Autotaxin [3] = molecular target: T1, Autotaxin; assay: Inhibition of recombinant mouse ATX using lysophosphatidylcholine as substrate by choline release assay
# [4] = Half life in human; assay type: ADME, organism-based; settings: in vivo
# Autotaxin [5] = molecular target: T2, Autotaxin (Homo sapiens, UniProt Q13822); assay: Inhibition of recombinant ATX in human MDA-MB-435 cells at 10 uM using FS3 as substrate fluorescence assay relative to control; assay type: cell-based
# Autotaxin [6] = molecular target: T2, Autotaxin; assay: Inhibition of human recombinant ATX using FS3 as substrate incubated for 30 mins by fluorescence assay
# [7] = Effective half life in Lewis rat at 1 mg/kg, iv measured up to 24 hrs by LC-MS/MS analysis; assay type: ADME, organism-based; settings: in vivo, read-out: t1/2eff (converted)
# [8] = Clearance in Lewis rat at 1 mg/kg, iv measured up to 24 hrs by LC-MS/MS analysis; assay type: ADME, organism-based; settings: in vivo
# [9] = Oral bioavailability in Lewis rat at 1 to 100 mg/kg administered through gavage measured up to 24 hrs by LC-MS/MS analysis; assay type: ADME, organism-based; settings: in vivo
# Rattus norvegicus [10] = assay: In vivo inhibition of ATX in Lewis rat air pouch model of inflammation assessed as inhibition of carrageenan-induced LPA production in plasma at 100 mg/kg, po administered through gavage 1 hr before carrageenan injection measured after 3 hrs by LC-MS/MS analysis relative to control; assay type: functional
# Rattus norvegicus [11] = assay: In vivo inhibition of ATX in Lewis rat air pouch model of inflammation assessed as inhibition of carrageenan-induced LPA production in pouch fluid at 100 mg/kg, po administered through gavage 1 hr before carrageenan injection measured after 3 hrs by LC-MS/MS analysis relative to control; assay type: functional
# [12] = Plasma concentration in Lewis rat air pouch model of inflammation at 3 mg/kg, po administered through gavage 1 hr before carrageenan injection measured after 3 hrs by LC-MS/MS analysis relative to control; assay type: ADME, organism-based
# [13] = Plasma concentration in Lewis rat air pouch model of inflammation at 100 mg/kg, po administered through gavage 1 hr before carrageenan injection measured after 3 hrs by LC-MS/MS analysis relative to control; assay type: ADME, organism-based
# Autotaxin [14] = molecular target: T2, Autotaxin; assay: Inhibition of recombinant human C-terminal V5/His6-tagged ATX expressed in HEK293 cells assessed as residual activity at 1 uM using oleoyl-lysophosphatidylcholine as substrate incubated for 16 hrs by choline release assay relative to control
# Autotaxin [15] = molecular target: T2, Autotaxin; assay: Inhibition of recombinant human C-terminal V5/His6-tagged ATX expressed in HEK293 cells assessed as residual activity at 10 uM using oleoyl-lysophosphatidylcholine as substrate incubated for 16 hrs by choline release assay relative to control
# Autotaxin [16] = molecular target: T2, Autotaxin; assay: Inhibition of recombinant human C-terminal V5/His6-tagged ATX expressed in HEK293 cells assessed as residual activity at 100 uM using oleoyl-lysophosphatidylcholine as substrate incubated for 16 hrs by choline release assay relative to control
# Autotaxin [17] = molecular target: T2, Autotaxin; assay: Inhibition of recombinant human C-terminal V5/His6-tagged ATX expressed in HEK293 cells assessed as choline release at 0.5 uM using oleoyl-lysophosphatidylcholine as substrate incubated for 18 hrs by non-linear regression analysis
# Autotaxin [18] = molecular target: T2, Autotaxin; assay: Inhibition of recombinant human C-terminal V5/His6-tagged ATX expressed in HEK293 cells assessed as choline release at 0.5 uM using oleoyl-lysophosphatidylcholine as substrate incubated for 18 hrs by linear regression analysis
# Autotaxin [19] = molecular target: T2, Autotaxin; assay: Inhibition of recombinant ATX in human Hep3B cells using lysophosphatidylcholine as substrate preincubated for 15 mins followed by substrate addition measured after 1.5 to 3 hrs by choline release assay; assay type: cell-based, Hep 3B2
# Autotaxin [20] = molecular target: T2, Autotaxin; settings: 10 uM
# Description: Inhibition of recombinant human ATX at 10 uM using lysophosphatidylcholine (14:0) as substrate measured after 2 hrs by AmplexRed dye based fluorescence assay relative to control
# Autotaxin [21] = molecular target: T2, Autotaxin; assay: Inhibition of recombinant human ATX using CPF4 as substrate measured after 3 hrs by fluorescence assay
# Autotaxin [22] = molecular target: T2, Autotaxin; assay: Inhibition of recombinant ATX in human […] cells using lysophosphatidylcholine as substrate preincubated for 15 mins followed by substrate addition measured after 90 mins by choline release assay; assay type: cell-based
# Autotaxin [23] = molecular target: T2, Autotaxin; assay: Inhibition of human recombinant ATX using FS3 as substrate incubated for 2 hrs by fluorescence assay
# Autotaxin [24] = molecular target: T2, Autotaxin; assay: Mixed-type inhibition of human recombinant ATX using FS3 as substrate assessed as enzyme-substrate-inhibitor complex incubated for 2 hrs by Michaelis-Menten equation analysis
# Autotaxin [25] = molecular target: T2, Autotaxin; assay: Mixed-type inhibition of human recombinant ATX using FS3 as substrate assessed as enzyme-inhibitor complex incubated for 2 hrs by Michaelis-Menten equation analysis
# Autotaxin [26] = molecular target: T2, Autotaxin; assay: Inhibition of recombinant human C-terminal His-tagged ATX expressed in HEK293E cells using lysophosphatidylcholine as substrate preincubated with enzyme followed by substrate addition measured after 1 hr by AmplexRed dye based fluorescence assay
# Autotaxin [27] = molecular target: T2, Autotaxin; assay: Inhibition of recombinant ATX (unknown origin) expressed in baculovirus infected Hi5 cells using L-alpha-lysophosphatidylcholine as substrate preincubated for 30 mins followed by substrate addition measured after 90 mins by AmplexRed dye based fluorescence plate reader analysis; settings: BTI-TN-5B1-4
compound,measurement,setting,value
CCc1nc2c(C)cc(N3CCN(CC(=O)N4CC(O)C4)CC3)cn2c1N(C)c1nc(-c2ccc(F)cc2)c(C#N)s1 [ZIRITAXESTAT],IC50,Autotaxin [1],≥ 0.5 µM
same,IC50,Autotaxin [2],≥ 0.5 µM
same,IC50,Autotaxin [3],0.224 µM
same,half-life,[4],5 h
CCn1cc(C(=O)O)c(=O)c2cnc(N3CCN(C(=S)NCc4cc(Cl)cc(Cl)c4)CC3)nc21,inhibition,Autotaxin [5],0%
O=C(CCc1nc2ccccc2s1)N1CCc2ncnc(Cc3ccc(F)cc3)c2C1,IC50,Autotaxin [6],0.00259 µM
O=C(CCN1CCN(C(=O)OCc2cc(Cl)cc(Cl)c2)CC1)c1ccc2[nH]c(=O)oc2c1,half-life,[7],1.2 h
same,clearance,[8],1.86 L/h/kg
same,bioavailability,[9],43%
same,inhibition in vivo at 100 mg/kg,Rattus norvegicus [10],≤ 95%
same,inhibition in vivo at 100 mg/kg,Rattus norvegicus [11],≤ 95%
same,concentration at 3 h,[12],0.079 µM
same,concentration at 3 h,[13],2.68 µM
CCCCCCCCCCCCCCCC(=O)N[C@@H](Cc1ccc(OCc2ncc(C)c(OC)c2C)cc1)[C@@H](O)CP(=O)(O)O,Activity,Autotaxin [14],27%
same,Activity,Autotaxin [15],13%
same,Activity,Autotaxin [16],6%
same,Ki,Autotaxin [17],1.3 µM
same,Ki,Autotaxin [18],0.39 µM
N#C/C(=C\c1nn(Cc2ccc(F)cc2)c2cc(Cl)ccc12)c1ccc(C(=O)O)cc1,IC50,Autotaxin [19],< 0.5 µM
O=C(Nc1cccc(F)c1)c1cc(S(=O)(=O)N2CCOCC2)c(Cl)cc1Cl,inhibition,Autotaxin [20],41%
same,IC50,Autotaxin [21],0.0314 µM
Cc1c(Sc2cccc(C(=O)O)n2)c2ccc(Cl)cc2n1-c1cnn(C)c1,IC50,Autotaxin [22],< 0.3 µM
CCCCCCCCCCCCCCc1ccc(CP(=O)(O)O)cc1,IC50,Autotaxin [23],0.17 µM
same,Ki,Autotaxin [24],0.28 µM
same,Ki,Autotaxin [25],0.27 µM
O=C(c1cc(-c2cnn[nH]2)ccn1)N1CCc2nc(NC3Cc4ccccc4C3)ncc2C1,IC50,Autotaxin [26],< 0.0017 µM
O=C(OCc1cc(Cl)cc(Cl)c1)N1CCC(N2CCN(C(=O)c3ccc4[nH]c(=O)oc4c3)CC2)CC1,INH,Autotaxin [27],< 1 µM

# — ChEMBL document CHEMBL3826953, “Development of Autotaxin Inhibitors: An Overview of the Patent and Primary Literature” (J Med Chem, 2016)
